Reference: ChEMBL document CHEMBL2380247, “Synthesis and biological evaluation of novel aliphatic amido-quaternary ammonium salts for anticancer chemotherapy: part II” (2013)

Assays:
Type in all cases: functional
PC-3 [1] = experiment: Antiproliferative activity against human PC3 cells by SRB assay
HCT-15 [2] = experiment: Antiproliferative activity against human HCT15 cells at 10 uM by SRB assay
NCI-H23 [3] = experiment: Antiproliferative activity against human NCI-H23 cells by SRB assay
HCT-15 [4] = experiment: Antiproliferative activity against human HCT15 cells at 0.1 uM by SRB assay
MDA-MB-231 [5] = experiment: Antiproliferative activity against human MDA-MB-231 cells by SRB assay
PC-3 [6] = experiment: Antiproliferative activity against human PC3 cells at 10 uM by SRB assay
NCI-H23 [7] = experiment: Antiproliferative activity against human NCI-H23 cells at 0.3 uM by SRB assay
NUGC-3 [8] = experiment: Antiproliferative activity against human NUGC3 cells at 3 uM by SRB assay
ACHN [9] = experiment: Antiproliferative activity against human ACHN cells at 1 uM by SRB assay
NUGC-3 [10] = experiment: Antiproliferative activity against human NUGC3 cells at 0.3 uM by SRB assay
ACHN [11] = experiment: Antiproliferative activity against human ACHN cells at 3 uM by SRB assay
NCI-H23 [12] = experiment: Antiproliferative activity against human NCI-H23 cells at 0.1 uM by SRB assay
NCI-H23 [13] = experiment: Antiproliferative activity against human NCI-H23 cells at 3 uM by SRB assay
HCT-15 [14] = experiment: Antiproliferative activity against human HCT15 cells at 3 uM by SRB assay
NUGC-3 [15] = experiment: Antiproliferative activity against human NUGC3 cells at 10 uM by SRB assay
PC-3 [16] = experiment: Antiproliferative activity against human PC3 cells at 0.3 uM by SRB assay
PC-3 [17] = experiment: Antiproliferative activity against human PC3 cells at 3 uM by SRB assay
HCT-15 [18] = experiment: Antiproliferative activity against human HCT15 cells at 1 uM by SRB assay
PC-3 [19] = experiment: Antiproliferative activity against human PC3 cells at 1 uM by SRB assay
NUGC-3 [20] = experiment: Antiproliferative activity against human NUGC3 cells at 0.1 uM by SRB assay
ACHN [21] = experiment: Antiproliferative activity against human ACHN cells at 10 uM by SRB assay
NCI-H23 [22] = experiment: Antiproliferative activity against human NCI-H23 cells at 1 uM by SRB assay
HCT-15 [23] = experiment: Antiproliferative activity against human HCT15 cells at 0.3 uM by SRB assay
NUGC-3 [24] = experiment: Antiproliferative activity against human NUGC3 cells at 1 uM by SRB assay
NUGC-3 [25] = experiment: Antiproliferative activity against human NUGC3 cells by SRB assay
NCI-H23 [26] = experiment: Antiproliferative activity against human NCI-H23 cells at 10 uM by SRB assay
MDA-MB-231 [27] = experiment: Antiproliferative activity against human MDA-MB-231 cells at 3 uM by SRB assay
MDA-MB-231 [28] = experiment: Antiproliferative activity against human MDA-MB-231 cells at 10 uM by SRB assay
ACHN [29] = experiment: Antiproliferative activity against human ACHN cells at 0.1 uM by SRB assay
PC-3 [30] = experiment: Antiproliferative activity against human PC3 cells at 0.1 uM by SRB assay
MDA-MB-231 [31] = experiment: Antiproliferative activity against human MDA-MB-231 cells at 0.3 uM by SRB assay
HCT-15 [32] = experiment: Antiproliferative activity against human HCT15 cells by SRB assay
ACHN [33] = experiment: Antiproliferative activity against human ACHN cells by SRB assay
ACHN [34] = experiment: Antiproliferative activity against human ACHN cells at 0.3 uM by SRB assay
MDA-MB-231 [35] = experiment: Antiproliferative activity against human MDA-MB-231 cells at 1 uM by SRB assay
MDA-MB-231 [36] = experiment: Antiproliferative activity against human MDA-MB-231 cells at 0.1 uM by SRB assay

| GI50 (PC-3 [1]) | GI50 (NCI-H23 [3]) | GI50 (MDA-MB-231 [5]) | Compound | growth, % of control at 10 µM (HCT-15 [2]) | growth, % of control at 0.1 µM (HCT-15 [4]) | growth, % of control at 10 µM (PC-3 [6]) | growth, % of control at 0.3 µM (NCI-H23 [7]) | growth, % of control at 3 µM (NUGC-3 [8]) | growth, % of control at 1 µM (ACHN [9]) | growth, % of control at 0.3 µM (NUGC-3 [10]) | growth, % of control at 3 µM (ACHN [11]) | growth, % of control at 0.1 µM (NCI-H23 [12]) | growth, % of control at 3 µM (NCI-H23 [13]) | growth, % of control at 3 µM (HCT-15 [14]) | growth, % of control at 10 µM (NUGC-3 [15]) | growth, % of control at 0.3 µM (PC-3 [16]) | growth, % of control at 3 µM (PC-3 [17]) | growth, % of control at 1 µM (HCT-15 [18]) | growth, % of control at 1 µM (PC-3 [19]) | growth, % of control at 0.1 µM (NUGC-3 [20]) | also measured |
| --- | --- | --- | --- | --- | --- | --- | --- | --- | --- | --- | --- | --- | --- | --- | --- | --- | --- | --- | --- | --- | --- |
| 430 nM | 680 nM | 800 nM | C=CC[N+](C)(C)CCCN(C)C(=O)CCCCCCCCCCCCCCC | 58% | 97.4% | -11.9% | 94.7% | -13.9% | 53.3% | 92.8% | 30% | 93.2% | 23.9% | 81.2% | -30.4% | 98% | 7.93% | 103% | 41.9% | 105% | growth, % of control at 10 µM (ACHN [21]): -6.41%; growth, % of control at 1 µM (NCI-H23 [22]): 65.5%; growth, % of control at 0.3 µM (HCT-15 [23]): 103%; growth, % of control at 1 µM (NUGC-3 [24]): 28.1%; GI50 (NUGC-3 [25]): 360 nM; growth, % of control at 10 µM (NCI-H23 [26]): -13.6%; growth, % of control at 3 µM (MDA-MB-231 [27]): 33.8%; growth, % of control at 10 µM (MDA-MB-231 [28]): 11.6%; growth, % of control at 0.1 µM (ACHN [29]): 81%; growth, % of control at 0.1 µM (PC-3 [30]): 98.5%; growth, % of control at 0.3 µM (MDA-MB-231 [31]): 88.3%; GI50 (HCT-15 [32]): > 10000 nM; GI50 (ACHN [33]): 470 nM; growth, % of control at 0.3 µM (ACHN [34]): 77.3%; growth, % of control at 1 µM (MDA-MB-231 [35]): 66%; growth, % of control at 0.1 µM (MDA-MB-231 [36]): 86.5% |
| 530 nM | 660 nM | 1410 nM | CCCCCCCCCCCCCC(=O)N(C)CCC[N+](C)(C)Cc1ccccc1 | 25.1% | 89.9% | -13.1% | 80% | 8.51% | 99.3% | 90% | 72.3% | 81% | 14.7% | 78.5% | -11.6% | 87.4% | 4.38% | 93.6% | 56.5% | 84.5% | growth, % of control at 10 µM (ACHN [21]): 1.92%; growth, % of control at 1 µM (NCI-H23 [22]): 70.4%; growth, % of control at 0.3 µM (HCT-15 [23]): 86.7%; growth, % of control at 1 µM (NUGC-3 [24]): 43.8%; GI50 (NUGC-3 [25]): 430 nM; growth, % of control at 10 µM (NCI-H23 [26]): -11.5%; growth, % of control at 3 µM (MDA-MB-231 [27]): 44.2%; growth, % of control at 10 µM (MDA-MB-231 [28]): -2.09%; growth, % of control at 0.1 µM (ACHN [29]): 107%; growth, % of control at 0.1 µM (PC-3 [30]): 101%; growth, % of control at 0.3 µM (MDA-MB-231 [31]): 106%; GI50 (HCT-15 [32]): 2830 nM; GI50 (ACHN [33]): 1890 nM; growth, % of control at 0.3 µM (ACHN [34]): 109%; growth, % of control at 1 µM (MDA-MB-231 [35]): 97.2%; growth, % of control at 0.1 µM (MDA-MB-231 [36]): 105% |
| 230 nM | 1110 nM | 360 nM | CCCCCCCCCCCCCCCC(=O)N(C)CC[N+](CC)(CC)CC | 3.4% | 89.1% | -24.2% | 84.9% | -43.8% | 16.7% | 53.4% | -15.6% | 84% | 45.2% | 24.6% | -50% | 71.9% | -5.6% | 56.7% | 12.6% | 99.2% | growth, % of control at 10 µM (ACHN [21]): -42.5%; growth, % of control at 1 µM (NCI-H23 [22]): 72.7%; growth, % of control at 0.3 µM (HCT-15 [23]): 83.5%; growth, % of control at 1 µM (NUGC-3 [24]): -14.6%; GI50 (NUGC-3 [25]): 160 nM; growth, % of control at 10 µM (NCI-H23 [26]): 8.5%; growth, % of control at 3 µM (MDA-MB-231 [27]): 12.6%; growth, % of control at 10 µM (MDA-MB-231 [28]): -17.3%; growth, % of control at 0.1 µM (ACHN [29]): 106%; growth, % of control at 0.1 µM (PC-3 [30]): 87.4%; growth, % of control at 0.3 µM (MDA-MB-231 [31]): 80.4%; GI50 (HCT-15 [32]): 610 nM; GI50 (ACHN [33]): 270 nM; growth, % of control at 0.3 µM (ACHN [34]): 78.5%; growth, % of control at 1 µM (MDA-MB-231 [35]): 33.1%; growth, % of control at 0.1 µM (MDA-MB-231 [36]): 94.3% |
